# Experimental data taken from article PMC11763059, “GENI as an AMPK Activator Binds α and γ Subunits and Improves the Memory Dysfunction of Alzheimer’s Disease Mouse Models via Autophagy and Neuroprotection” (Antioxidants, 2025).
# How the values were obtained:
# [1] = test system: PC12 cells; assay: Neuroprotection assay (MTT) on H2O2-damaged PC12 cells; type: cell-based; conditions: GENI 1, 3, or 10 μM 24 h, then 0.8 mM H2O2 1 h
# Method: We seeded 5 × 10^4 PC12 cells in each well of a 24-well plate and incubated the cells for 24 h at 37 °C in 5% CO2. The medium was changed to 1 mL of serum-free Dulbecco’s modified Eagle’s medium (DMEM; Thermo Scientific, Shanghai, China) containing the different test samples. To determine the optimal concentration of hydrogen peroxide (H2O2), we treated cells with 0.5% dimethyl sulfoxide (DMSO) for 24 h and then incubated the cells with different concentrations of H2O2 for 1 h. In this work, 0.8 mM H2O2 was selected as the best dose for the following experiment. To study the neuroprotective effects of GENI, we treated PC12 cells with resveratrol (RES 10 μM) or GENI (1, 3, or 10 μM) for 24 h and 0.8 mM H2O2 for 1 h. The medium was changed to 500 μL of serum-free DMEM containing 200 μg/mL 3-(4,5-dimethyltaizol-2-yl)-2,5-diphenyltetrazolium bromide (MTT) and incubated for an additional 2 h. The medium was completely removed, and 200 μL of DMSO was added to each well to dissolve the formed formazan crystals. The resulting formazan was detected at 570 nm using a microplate reader (Bio-Tec Instruments Inc., Winooski, VT, USA).
# [2] = test system: T1, p53; assay: Drug affinity responsive target stability (DARTS), p53; type: binding; conditions: 0.1–100 μM GENI, protein: pronase 100:1
# T1 construct: endogenous in cells
# Method: Cells were lysed by RIPA lysis buffer, and the protein concentration was measured. The lysate was divided into six groups. Before incubation with protease (protein: pronase = 50:1 w/w for PI3K and AMPK detection, 5:1 for MAPK detection, 100:1 for p53 detection) for 25 min in 25 °C, 0.1–100 μM GENI was added to lysates and incubated for 2 h at room temperature. The samples were mixed with loading buffer and then separated on 8% SDS-PAGE for immunoblotting analysis.
# [3] = test system: AMPK; assay: Cellular thermal shift assay (CETSA) in PC12 cells, AMPK; type: binding; conditions: 10 μM GENI 2 h, 60 °C to 80 °C
# Method: (§1) In a 60 mm dish containing 5 mL of DMEM, 2 × 10^6 cells were added and incubated for 24 h. In each plate, 10 μM GENI was added and incubated for 2 h. Cells were harvested and heated at a temperature ranging from 60 °C to 80 °C for PC12 cell samples. We obtained a certain amount of cerebral cortex and hippocampus samples, which were added with PBS and ground. After centrifugation, the supernatant was used as a sample, and we measured the protein concentration with a BCA kit (CoWin Biotech Co., Ltd., Taizhou, Jiangsu, China). The protein of the cerebral cortex or hippocampus was incubated with 10 μM GENI at 37 °C for 2 h and heated from 65 °C to 100 °C for the cerebral cortex sample but 43 °C to 67 °C and 65 °C to 100 °C for the hippocampus sample. Equal volumes of supernatant heated at each temperature point for the control and treatment groups were used for Western blot analysis with the antibody for specific proteins.
# [4] = test system: PC12 cells; assay: MDA content assay in PC12 cells; type: cell-based; conditions: GENI 3 or 10 μM 24 h, 0.8 mM H2O2 1 h
# Method: To determine ROS levels in PC12 cells, we seeded 5 × 10^4 PC12 cells in each well of a 24-well plate. Cells were treated with RES (10 μM) or GENI (1, 3, and 10 μM) for 24 h, followed by 0.8 mM H2O2 for 1 h. DCFH-DA (2,7-dichlorodihydrofluorescein diacetate, final concentration, 10 μM) was then added to each well and incubated for 30 min. Cells were washed with PBS to remove extracellular DCFH-DA, and intercellular ROS was detected by using a SpectraMax M3 multimode microplate reader (Molecular Devices Corporation, San Jose, CA, USA) at an excitation wavelength of 488 nm and an emission wavelength of 525 nm. Meanwhile, DCF in PC12 cells was observed using a fluorescence microscope (HCS, Thermo Fisher, Science, Waltham, MA, USA). To detect malondialdehyde (MDA) content and total SOD enzymatic activities in PC12 cells, we seeded 2 × 10^6 PC12 cells in 60 mm dishes containing 5 mL of DMEM and cultured the cells for 24 h. PC12 cells were treated with RES (10 μM) or GENI (3 or 10 μM) for 24 h and then treated with 0.8 mM H2O2 for 1 h to determine the MDA content and total superoxide dismutase (SOD) activities. Cells were lysed and centrifuged. […] MDA quantification and total SOD activities were determined using MDA and SOD enzyme activity assay kits (Nanjing Jiancheng Bioengineering Institute, Nanjing, China) following the manufacturer’s instructions.
# [5] = test system: T2, AMPK α subunit ASP166 mutated into ALA166; assay: SPR analysis, AMPK α subunit D166 replaced with A166; type: binding
# T2 construct: His (N); made in house
# Method: Mammalian AMPK subunits (His-α1, β1, and γ1) were cloned into a pET-3d vector, and protein expression and purification were similar to the literature.
# SPR analysis was performed with a Biacore T200 instrument (GE Healthcare). Firstly, the purred His-tagged AMPK containing α1β1γ1 protein was captured onto an activated carboxymethylated 5 (CM5) chip using amine coupling to levels ranging from 4000 RU to 6000 RU. Secondly, GENI was dissolved in PBS-P buffer solution (0.05% (v/v) Tween 20 and PBS), and the concentration of GENI was 64 μM. Thirdly, the solution of GENI was diluted to 32 μM, 16 μM, 8 μM, 4 μM, 2 μM, 1 μM and 0.5 μM with PBS-P buffer solution. The sample was filtered by pumping through a […] membrane. A gradient concentration of GENI was injected at a flow rate of 30 μL/min in a running buffer (0.05% (v/v) Tween 20 and PBS). The data were analyzed with Biacore evaluation software (T200 version 2.0) and fitted to the 1:1 Langmuir binding model, and the kinetic parameters were derived.
# The non-covalent interaction between drugs and proteins is an important way to exert drug efficacy, and its mode of action and binding affinity usually determine the utilization and biological activity of drugs. AMPK is a heterotrimer complex consisting of an α subunit containing the kinase domain and two regulatory subunits (β- and γ-). […]
# [6] = test system: MAPK; assay: Cellular thermal shift assay (CETSA) in PC12 cells, MAPK; type: binding; conditions: 10 μM GENI 2 h, 60 °C to 80 °C
# Method: as §1
smiles,measurement,setting,value
"CC(C)CCOC(=O)C1=CO[C@@H](O[C@@H]2O[C@H](CO)[C@@H](O)[C@H](O)[C@H]2O)C2C(CO)=CCC12 (stereo partly drawn) [GENI, Geniposidic 4-isoamyl ester]",survival rate of PC12 cells induced by H2O2,[1],significantly improve
same,stability of p53 against pronase (DARTS),[2],no obvious effect
same,thermal stability of AMPK (CETSA),[3],sensibly increase the thermal stability
same,H2O2-induced increase in MDA,[4],significantly reduce
same,dose-dependent response in SPR,[5],No significant dose-dependent response
same,thermal stability of MAPK (CETSA),[6],not obvious
